Experimental findings from US7572890B2, “Recombinant human mannan-building proteins” (Fuso Pharmaceutical Industries, Ltd., priority 1998, dated 2009) are described below.

Experiment [1] has as its target T1, rhMBP (without Vitamin C) (Homo sapiens, UniProt P11226).
T1 construct: made in house; host or cells: CHO DG44 (dhfr-), neomycin/MTX-resistant clones; purified from culture supernatant on mannan-agarose
Kind of experiment: Sugar inhibition of rhMBP (cultured without vitamin C) binding to mannan (ELISA).

Experiment [2] addresses T2, native hMBP (Homo sapiens, UniProt P11226).
T2 construct: samples of stepwise dilution of the native hMBP, rhMBP (cultured with vitamin C), rhMBP (cultured without vitamin C)
Kind of experiment: Sugar inhibition of native hMBP binding to mannan (ELISA).

For experiment [3], the target named is T3, rhMBP (with Vitamin C) (Homo sapiens, UniProt P11226).
T3 construct: made in house; host or cells: CHO DG44 (dhfr-), neomycin/MTX-resistant clones; purified from culture supernatant on mannan-agarose
Kind of experiment: Sugar inhibition of rhMBP (cultured with vitamin C) binding to mannan (ELISA). On the technique in general: ELISA stands for enzyme-linked immunosorbent assay.

Experiment [4] concerns Influenza A virus A/Ibaraki/l/90 (H3N2). Kind of experiment: Hemagglutination Inhibition (HI) activities. The format is cell-based. Particulars: for Minimum Protein Concentration for HI Activities: 16HAU virus, chicken erythrocytes.
Experiment [5] concerns HIV-1 (HIV-gp120, HIV-gp160). Kind of experiment: Binding of rhMBP to blotted viral structural proteins: HIV-1. Particulars: rhMBP 1.0 μg/ml; FIG. 20. On the procedure:
(§1) Binding activities on rhMBP to HIV-1, HBV and Influenza A virus were determined by electrophoresing the following viral structural proteins, transferring them to membranes, binding thereto rhMBP and detecting them with labeled antibody.
(§2) Necessary amounts of viral structural proteins for the electrophoresis were 0.25 μg of HIV-gp120 (HIVIIIB-gp120) (ADVANCED BIOTECHNOLOGIES INCORPORATED (ABI)), 0.25 μg of HIV-gp160 (HIVIIIB-gp160) (ABI), 10 μg of HBS (Hepatitis B Surface Antigen (HBsAg) (ABI), Subtype ad), Influenza A virus (IAV; presented by The Research Foundation For Osaka University Research Institute for Microbial Diseases), 5 μg of H1N1 Yamagata virion and 5 μg of H3N2 Beijin virion.
(§3) SDS-PAGE employed polyacrylamide gel having the concentration gradient of 4˜20%, and HIV-1 and HBS were electrophoresed under reducing condition. After the electrophoresis, they were transferred to Immobilon-P^SQ transfer membrane (Millipore) with NOVA BLOT™ electrophoretic transfer unit (Pharmacia) by using semi-dry electroblot buffer kit (Owl Scientific). After such transfer, they were blocked with BLOCKACE™ blocking solution (Dainippon Pharmaceutical) at room temperature for one hour. […]

For experiment [6], the system named is HBV (Hepatitis B Surface Antigen). The experiment is described as follows: Binding of rhMBP to blotted viral structural proteins: HBV. Particulars: rhMBP 1.0 μg/ml; FIG. 20. On the procedure: as §1, §2, §3
Experiment [7] relates to Influenza A virus A/Ibaraki/1/90. The format is cell-based. Particulars: 0.5 and 1 μg/ml, three days; FIG. 21.
The nature of experiment [8]: Sugar binding activity of MBP on mannan-coated plates (ELISA). The settings on record: Table 1. How it is done:
Microtiter Plates were treated with 100 μl of coating buffer (15 mM sodium carbonate, 35 mM sodium hydrogen carbonate, 0.05% sodium azide, pH 9.6) containing mannan (10 μg/ml:SIGMA) at 4° C. overnight. After each treatment step, the plates were washed three times with TBSNTC solution (TBS, 0.05% sodium azide, 0.05% TWEEN 20 (Registered Trade Mark), 5 mM calcium chloride). After completing the coating of the plates, the plates were treated and blocked with BLOCKACE™ blocking solution (Dainippon Pharmaceutical) at room temperature for one hour.
After washing them, samples of stepwise dilution of the native hMBP, rhMBP (cultured with vitamin C), rhMBP (cultured without vitamin C) having the concentration of 200, 100, 50, 25, 12.5, 6.25 ng/ml, combination samples of 200 ng/ml of each hMBP with EDTA added to be its concentration of 10 mM, and combination samples of 50 ng/ml of each hMBP with mannose added to be its concentration of 100 mM were prepared, thereafter, 100 μl of each of them were poured into each well and were incubated at 37° C. for one hour. […] After incubating them at room temperature for 30 minutes, 100 μl of 1M phosphoric acid were added thereto, and their absorbance were measured at 450 nm (Model 450 Microplate Reader; Bio-Rad). […]

For experiment [9], the system named is guinea pig complement. Kind of experiment: Complement activation: hemolysis of mannan-sensitized sheep erythrocyte.
The test system of experiment [10] is Influenza A virus A/Ibaraki/l/90. The experiment is described as follows: Neutralization activities (focus reduction on MDCK cells). It counts as cell-based.
The test system of experiment [11] is Influenza A virus (H1N1 Yamagata virion, H3N2 Beijin virion). The experiment is described as follows: Binding of rhMBP to blotted viral structural proteins: Influenza A virus. Particulars: rhMBP 1.0 μg/ml; FIG. 20. How it is done:
as §1, §2, §3

The mark [12] stands for this setting: rhMBP (without Vitamin C), mannan-coated microtiter plates, read-out: I 50: Sugar concentration to halve binding activities with mannan.
Setting [13] is: native hMBP, mannan-coated microtiter plates, read-out: I 50: Sugar concentration to halve binding activities with mannan.
Setting [14] is: rhMBP (with Vitamin C), mannan-coated microtiter plates, read-out: I 50: Sugar concentration to halve binding activities with mannan.

Read-outs that look alike come from different tables or passages of the source.

T2 sequence (P11226 21-248): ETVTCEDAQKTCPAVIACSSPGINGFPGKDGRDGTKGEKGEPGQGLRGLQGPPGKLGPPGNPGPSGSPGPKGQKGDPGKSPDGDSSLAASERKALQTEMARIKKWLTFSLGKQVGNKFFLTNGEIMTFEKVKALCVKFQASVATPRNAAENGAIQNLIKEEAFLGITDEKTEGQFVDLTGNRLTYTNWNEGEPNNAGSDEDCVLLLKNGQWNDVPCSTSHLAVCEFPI
T3 sequence (P11226 21-248): as above
T1 sequence (P11226 21-248): as above

As to `C[C@@H](O)[C@H](O)[C@H](O)[C@@H](O)C=O` [D-Fucose], the values for the IC50 in [1] (setting [12]), in [2] (setting [13]) and in experiment [3] (setting [14]) were 86.7 mM, 33.5 mM and 39.1 mM, respectively.
On to `O=C[C@@H](O)[C@@H](O)[C@H](O)[C@H](O)CO` [D-Mannose], for which the results for the IC50 in experiment [1], in experiment [2] and in experiment [3] were 6.8 mM, 3.7 mM and 6.7 mM, respectively.
Take `O=C[C@H](O)[C@@H](O)[C@@H](O)[C@H](O)CO` [Galactose]: the IC50 in experiment [1] came out at 36.7 mM; in experiment [2] it was 24.2 mM; in experiment [3], 29.8 mM.
On to `C[C@H](O)[C@@H](O)[C@@H](O)[C@H](O)C=O` [L-Fucose], for which the IC50 in experiment [1] (setting [12]) is 8.7 mM; in experiment [2] (setting [13]) it was 4.2 mM; in [3] (setting [14]), 4.4 mM.
With `OC[C@H]1O[C@@H](O[C@H]2[C@H](O)[C@@H](O)C(O)O[C@@H]2CO)[C@H](O)[C@@H](O)[C@H]1O` (stereo partly shown) [Lactose], the IC50 in experiment [1] (setting [12]) is 59.4 mM; in experiment [2] (setting [13]), 36 mM; in experiment [3] (setting [14]) it was 46.6 mM.
For the compound `OC[C@H]1O[C@H](O[C@H]2[C@H](O)[C@@H](O)[C@H](O)O[C@@H]2CO)[C@H](O)[C@@H](O)[C@@H]1O` [Maltose], the IC50 in experiment [1] (setting [12]) is 7.4 mM; in experiment [2] (setting [13]) it was 7.4 mM; in experiment [3] (setting [14]), 6.4 mM.
For the compound `CC(=O)N[C@H]1C(O)O[C@H](CO)[C@H](O)[C@@H]1O` (stereo partly drawn) [N-Acetyl-D-Galactosamine], the IC50 in [1] (setting [12]), in experiment [2] (setting [13]) and in experiment [3] (setting [14]) was over 100 mM each time.
For `CC(=O)N[C@H]1C(O)O[C@H](CO)[C@@H](O)[C@@H]1O` (stereo partly drawn) [N-Acetyl-D-Glucosamine], the IC50 in experiment [1] (setting [12]) amounted to 3.8 mM; in experiment [2] (setting [13]) it was 2.7 mM; in experiment [3] (setting [14]), 3.6 mM.
Consider `CC(=O)N[C@@H]1C(O)O[C@H](CO)[C@@H](O)[C@@H]1O` (stereo partly drawn) [N-Acetyl-D-Mannosamine], for which the IC50 in experiment [1] (setting [12]) turned out to be 6.9 mM; in [2] (setting [13]) it was 4.4 mM; in experiment [3] (setting [14]) it was 6.9 mM.
As for “native hMBP: natural Human Mannan-Binding Protein, used as comparator”, the “Minimum Protein Concentration for HI Activities” value (from here on “Minimum Protein Concentration”) in experiment [4] was found to be 40 ng/mL.
Consider “rhMBP (with Vitamin C): rhMBP from CHO clone cultured in medium with vitamin C added”, for which the “Minimum Protein Concentration” value in experiment [4] was 80 ng/mL.
In the case of “rhMBP (without Vitamin C): rhMBP from CHO clone cultured in medium without vitamin C”, the “Minimum Protein Concentration” value in experiment [4] came out at 80 ng/mL.
Consider “rhMBP: recombinant human Mannan-Binding Protein expressed from pNOW1-hMBP in dhfr- CHO cells, purified on mannan-agarose”, for which the “Binding activities to HIV-1” value in experiment [5] is recorded as “have binding activities”. Further, the “Binding activities to HBV” value in experiment [6] was “have binding activities”. Also, the “Viral growth inhibition (gross area of virus-infected focus)” value in experiment [7] is “reduced focus area infected by influenza viruses concentration-dependently”. The “Sugar binding specificities compared with native hMBP” value in [8] is given as “substantially identical to those by the native hMBP”. In [9] (1, 10, 100 and 1000 ng/tube, FIG. 22), the “Hemolysis of sensitized sheep erythrocyte (complement activation)” value is reported as “hemolyzed concentration-dependently sensitized sheep erythrocyte substantially like the native hMBP”. Also, in experiment [9] (mannose added), the “Complement activation on addition of mannose” value is on record as “suppressed by an addition of mannose”. For the same compound, the “Neutralization activities on addition of mannose” value in experiment [10] (100 mM mannose) is reported as “inhibited by addition of mannose”. In [10] (FIG. 19, MDCK cells), the “Neutralization activities for influenza virus (reduction rate of FFU)” value was “had neutralization activities for influenza virus”. In experiment [4] (Table 2 and FIG. 18), the “Hemagglutination Inhibition (HI) activities compared with native hMBP” value is recorded as “not inferior to that by native hMBP”. Besides, the “Binding activities to Influenza A virus” value in experiment [11] is “have binding activities”.
